Laboratory results reported in paper PMC7749613 (Journal of Cachexia, Sarcopenia and Muscle, 2020).
Bridge positions count the residues as written; N and C are the ends. Square brackets hold non-standard residues; d marks the D form. Peptide text beside a SMILES is read from it. d2Nal = N[C@H](Cc1ccc2ccccc2c1)C(=O)O; Nle = CCCC[C@H](N)C(=O)O

How the values were obtained:
Type in all cases: in vitro ADME
OATP1B3 = biological target: T1, OATP1B3 (Homo sapiens, UniProt Q9NPD5); test: Inhibition of prototypical substrate (CCK‐8) uptake by TCMCB07 in HEK293/OATP1B3 cells
T1 construct: host or cells: HEK293
T1 sequence (Q9NPD5 1-702): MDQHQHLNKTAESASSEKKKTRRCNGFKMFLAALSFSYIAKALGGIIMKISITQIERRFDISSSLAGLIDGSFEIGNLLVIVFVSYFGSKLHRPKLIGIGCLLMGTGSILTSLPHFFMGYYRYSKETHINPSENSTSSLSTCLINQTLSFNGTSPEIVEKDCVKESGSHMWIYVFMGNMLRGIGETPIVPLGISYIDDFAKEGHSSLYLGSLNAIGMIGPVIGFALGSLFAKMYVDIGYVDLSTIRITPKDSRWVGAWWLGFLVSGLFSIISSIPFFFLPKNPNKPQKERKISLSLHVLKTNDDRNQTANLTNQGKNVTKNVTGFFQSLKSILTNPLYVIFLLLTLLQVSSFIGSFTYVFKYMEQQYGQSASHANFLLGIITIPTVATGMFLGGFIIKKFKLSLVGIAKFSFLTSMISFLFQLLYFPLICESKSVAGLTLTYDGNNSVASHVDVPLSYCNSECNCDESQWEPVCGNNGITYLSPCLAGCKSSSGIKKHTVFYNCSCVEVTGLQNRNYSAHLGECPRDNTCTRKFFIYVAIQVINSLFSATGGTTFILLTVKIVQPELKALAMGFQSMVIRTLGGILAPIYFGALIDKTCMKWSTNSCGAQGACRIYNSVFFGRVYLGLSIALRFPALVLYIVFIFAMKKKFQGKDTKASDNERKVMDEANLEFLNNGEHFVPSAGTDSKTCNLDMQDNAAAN
Experimental: (§1) Cells were then washed three times × 1.0 mL each with pre‐warmed Hank's Balanced Salt Solution (HBSS) buffer. A 0.5 mL aliquot of uptake buffer [HBSS plus 10 mM 4‐(2‐hydroxyethyl)‐1‐piperazineethanesulfonic acid (HEPES), pH 7.4], containing the radiolabelled prototypical substrate and mannitol, was then incubated for various times up to 60 min to determine the optimal incubation time for subsequent experiments (i.e. time of sampling during linear uptake conditions). At the designated times, 1.0 mL of ice‐cold HBSS buffer was added to stop uptake after which the cells were rinsed three times with 1.0 mL with ice‐cold HBSS. Hyamine hydroxide (0.33 mL) was then added to each well to lyse the cells. The cells were transferred into a scintillation vial and mixed with 6.0 mL of cytosine scintillation cocktail. Radioactivity of the solubilized cells was determined with a dual‐channel liquid scintillation counter (Beckman LS 6000; Beckman Coulter Inc., Fullerton, CA) and the protein quantified by a bicinchoninic acid protein assay kit (Pierce Biotechnology; Rockford, IL).

OCT2 = biological target: T2, OCT2 (Homo sapiens, UniProt O15244); test: Inhibition of prototypical substrate (MPP+) uptake by TCMCB07 in HEK293/OCT2 cells
T2 construct: host or cells: HEK293
T2 sequence (O15244 1-555): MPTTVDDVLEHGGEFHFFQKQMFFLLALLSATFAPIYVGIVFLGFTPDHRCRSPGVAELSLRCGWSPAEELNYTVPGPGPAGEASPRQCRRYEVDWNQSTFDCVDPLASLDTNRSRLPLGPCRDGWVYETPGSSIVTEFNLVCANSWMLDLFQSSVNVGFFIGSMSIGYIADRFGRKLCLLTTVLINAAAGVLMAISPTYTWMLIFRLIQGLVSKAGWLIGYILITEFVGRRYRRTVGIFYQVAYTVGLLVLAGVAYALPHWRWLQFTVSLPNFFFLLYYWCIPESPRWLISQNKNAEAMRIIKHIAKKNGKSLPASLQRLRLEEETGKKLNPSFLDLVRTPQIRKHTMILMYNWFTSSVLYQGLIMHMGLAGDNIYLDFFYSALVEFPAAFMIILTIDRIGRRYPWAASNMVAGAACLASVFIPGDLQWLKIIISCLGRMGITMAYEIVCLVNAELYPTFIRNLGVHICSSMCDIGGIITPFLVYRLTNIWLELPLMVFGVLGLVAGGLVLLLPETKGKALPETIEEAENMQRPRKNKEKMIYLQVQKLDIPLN
Experimental: as §1

OAT1 = biological target: T3, OAT1 (Homo sapiens, UniProt Q4U2R8); test: Inhibition of prototypical substrate (PAH) uptake by TCMCB07 in HEK293/OAT1 cells; conditions: substrate 1.0 μM [14C]PAH, 5.0 min, up to 1000 μM TCMCB07
T3 construct: host or cells: HEK293
T3 sequence (Q4U2R8 1-563): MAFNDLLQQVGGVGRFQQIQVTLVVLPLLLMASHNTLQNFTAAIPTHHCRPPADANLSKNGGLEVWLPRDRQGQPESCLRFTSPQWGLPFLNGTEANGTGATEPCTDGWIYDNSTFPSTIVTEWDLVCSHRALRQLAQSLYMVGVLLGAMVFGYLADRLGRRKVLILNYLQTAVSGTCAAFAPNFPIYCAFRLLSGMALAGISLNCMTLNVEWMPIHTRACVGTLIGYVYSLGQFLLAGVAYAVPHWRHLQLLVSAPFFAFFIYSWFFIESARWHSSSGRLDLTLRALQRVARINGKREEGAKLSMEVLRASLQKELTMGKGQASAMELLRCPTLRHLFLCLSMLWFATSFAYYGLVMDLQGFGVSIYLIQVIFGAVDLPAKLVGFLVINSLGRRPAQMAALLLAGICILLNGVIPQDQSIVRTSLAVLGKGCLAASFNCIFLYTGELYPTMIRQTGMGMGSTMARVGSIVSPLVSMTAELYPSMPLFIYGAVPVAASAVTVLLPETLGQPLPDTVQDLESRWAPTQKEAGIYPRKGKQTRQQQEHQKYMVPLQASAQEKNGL
Experimental: as §1

CCCC[C@H](NC(C)=O)C(=O)N[C@H]1CC(=O)NCCCC[C@@H](C(=O)N[C@@H](C(=O)N2CCC[C@@H]2C(N)=O)C(C)C)NC(=O)[C@H](Cc2c[nH]c3ccccc23)NC(=O)[C@H](CCCN=C(N)N)NC(=O)[C@@H](Cc2ccc3ccccc3c2)NC(=O)[C@@H]2CCCN2C1=O [TCMCB07, Ac‐Nle‐c[Asp‐Pro‐dNal2′‐Arg‐Trp‐Lys]‐dVal‐dPro‐NH2] (Ac-[Nle]DP[d2Nal]RWK[dV][dP]-NH2; lactam 2-7)
IC50 (OATP1B3): 307 ± 39 µM
Slope factor (OATP1B3; slope factor n of Eqn 1, OATP1B3, substrate CCK‐8): 1.8 ± 0.3
IC50 (OCT2): 1170 µM
IC50 (OAT1): could not be determined
